From US20240376090A1, “ISOXAZOLE DERIVATIVES AS MODULATORS OF THE 5-HT2A SEROTONIN RECEPTOR USEFUL FOR THE TREATMENT OF DISORDERED RELATED THERETO” (Arena Pharmaceuticals, Inc., priority 2020, published 2024)

Biological target: 5-HT2A receptor (Homo sapiens (Human), UniProt P28223)
Assay: Radioligand binding assay ([3H]5-HT competition), 5-HT2A
Details: [3H]5-HT radioligand, membranes of HEK293 cells expressing recombinant 5-HT2A; Ki from IC50 by Cheng-Prusoff; read-out: 5-HT2A serotonin binding Ki value
Experimental: Competition binding experiments consisted of addition of 5 μL of serially diluted test compound, 50 μL of radioligand stock diluted in Assay Buffer (20 mM HEPES, pH 7.4, 10 mM MgCl2), and 145 μL of diluted membrane expressing the receptor of interest to 96-well microtiter plates, which were then incubated for one hour at room temperature. Assay incubations were terminated by rapid filtration through Perkin Elmer GF/C filtration plates under vacuum pressure using a 96-well Packard filtration apparatus, followed by washing the filter plates several times with ice cold Assay Buffer. Plates were then dried at 45° C. for a minimum of four hours. Finally, 25 μL of BetaScint scintillation cocktail was added to each well and the plates were counted in a Packard TopCount scintillation counter. In each competition study, test compounds were assayed at 10 concentrations with three replicates at each test concentration. Dose-response curves were constructed to determine IC50 values and these were converted to corresponding Ki values using the Cheng-Prusoff equation.

Chain of 5-HT2A receptor (P28223 whole entry): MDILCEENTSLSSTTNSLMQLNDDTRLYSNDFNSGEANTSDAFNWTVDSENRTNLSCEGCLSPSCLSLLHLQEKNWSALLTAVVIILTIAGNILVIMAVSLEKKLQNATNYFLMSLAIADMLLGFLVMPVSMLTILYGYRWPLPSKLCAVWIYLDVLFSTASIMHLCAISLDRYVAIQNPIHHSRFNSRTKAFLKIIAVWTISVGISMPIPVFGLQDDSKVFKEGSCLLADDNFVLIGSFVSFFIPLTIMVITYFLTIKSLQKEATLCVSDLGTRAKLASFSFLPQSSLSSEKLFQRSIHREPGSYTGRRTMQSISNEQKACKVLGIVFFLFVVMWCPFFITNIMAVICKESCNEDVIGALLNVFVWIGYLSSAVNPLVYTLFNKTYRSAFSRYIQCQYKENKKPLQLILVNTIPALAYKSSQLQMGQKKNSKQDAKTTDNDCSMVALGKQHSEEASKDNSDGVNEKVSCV

Structure (SMILES) | Ki [nM]
CCOC1CC1C(=O)Nc1ccc(OCCN2CCCC2)c(-c2c(C)noc2C)c1 (centres unmarked) [Compound 115, N-(3-(3,5-dimethylisoxazol-4-yl)-4-(2-(pyrrolidin-1-yl)ethoxy)phenyl)-2-ethoxycyclopropane-1-carboxamide] | 8.52
Cc1noc(C)c1-c1cc(NC(=O)C2CC2)ccc1O[C@H]1CCNC1 [Compound 180, (S)—N-(3-(3,5-dimethylisoxazol-4-yl)-4-(pyrrolidin-3-yloxy)phenyl)cyclopropanecarboxamide] | 186
Cc1noc(C)c1-c1cc(NC(=O)C2CC2)ccc1OCC1CCN1 (centres unmarked) [Compound 174, N-[4-(azetidin-2-ylmethoxy)-3-(3,5-dimethylisoxazol-4-yl)phenyl]cyclopropanecarboxamide] | 48
Cc1noc(C)c1-c1cc(NC(=O)C2(F)CC2)ccc1O[C@@H]1CCCNC1 [Compound 235, (R)—N-(3-(3,5-dimethylisoxazol-4-yl)-4-(piperidin-3-yloxy)phenyl)-1-fluorocyclopropane-1-carboxamide] | 45.2
Cc1noc(C)c1-c1cc(NC(=O)c2cc(Cl)ccn2)ccc1OCCN1CCCC1 [Compound 105, 4-chloro-N-(3-(3,5-dimethylisoxazol-4-yl)-4-(2-(pyrrolidin-1-yl)ethoxy)phenyl)picolinamide] | 3.94
COc1ccc(CC(=O)Nc2ccc(OC[C@H]3CCCCN3)c(-c3c(C)noc3C)c2)cc1 [Compound 224, (R)—N-(3-(3,5-dimethylisoxazol-4-yl)-4-(piperidin-2-ylmethoxy)phenyl)-2-(4-methoxyphenyl)acetamide] | 1.53
Cc1nc(C(=O)Nc2ccc(OC[C@H]3CCCCN3)c(-c3c(C)noc3C)c2)c(C)o1 [Compound 216, (R)—N-(3-(3,5-dimethylisoxazol-4-yl)-4-(piperidin-2-ylmethoxy)phenyl)-2,5-dimethyloxazole-4-carboxamide] | 298
Cc1noc(C)c1-c1cc(NC(=O)C2CC2)ccc1OCCN(C)CC1CC1 [Compound 151, N-(4-(2-((cyclopropylmethyl)(methyl)amino)ethoxy)-3-(3,5-dimethylisoxazol-4-yl)phenyl)cyclopropanecarboxamide] | 47.1
Cc1noc(C)c1-c1cc(NC(=O)[C@@H]2C[C@H]2F)ccc1OCCN1CCCC1 [Compound 106, (1S,2R)—N-[3-(3,5-dimethylisoxazol-4-yl)-4-(2-pyrrolidin-1-ylethoxy)phenyl]-2-fluoro-cyclopropanecarboxamide] | 1.13
Cc1noc(C)c1-c1cc(NC(=O)C2CC2)ccc1OCCN1CCN(C)C(=O)C1 [Compound 156, N-[3-(3,5-dimethylisoxazol-4-yl)-4-[2-(4-methyl-3-oxo-piperazin-1-yl)ethoxy]phenyl]cyclopropanecarboxamide] | 145
Cc1nocc1C(=O)Nc1ccc(OC[C@H]2CCCCN2)c(-c2c(C)noc2C)c1 [Compound 183, (R)—N-(3-(3,5-dimethylisoxazol-4-yl)-4-(piperidin-2-ylmethoxy)phenyl)-3-methylisoxazole-4-carboxamide] | 5.09
COC1CCN(CCOc2ccc(NC(=O)C3CC3)cc2-c2c(C)noc2C)CC1 [Compound 143, N-(3-(3,5-dimethylisoxazol-4-yl)-4-(2-(4-methoxypiperidin-1-yl)ethoxy)phenyl)cyclopropanecarboxamide] | 84
Cc1cnn(C)c1C(=O)Nc1ccc(OC[C@H]2CCCCN2)c(-c2c(C)noc2C)c1 [Compound 208, (R)—N-(3-(3,5-dimethylisoxazol-4-yl)-4-(piperidin-2-ylmethoxy)phenyl)-1,4-dimethyl-1H-pyrazole-5-carboxamide] | 9.66
Cc1noc(C)c1-c1cc(NC(=O)C2CC2)ccc1OCCN1CC[C@H](O)C1 [Compound 147, (S)—N-(3-(3,5-dimethylisoxazol-4-yl)-4-(2-(3-hydroxypyrrolidin-1-yl)ethoxy)phenyl)cyclopropanecarboxamide] | 25.2
Cc1noc(C)c1-c1cc(NC(=O)Cc2nccs2)ccc1OC[C@H]1CCCCN1 [Compound 213, (R)—N-(3-(3,5-dimethylisoxazol-4-yl)-4-(piperidin-2-ylmethoxy)phenyl)-2-(thiazol-2-yl)acetamide] | 4.73
Cc1nc(C(C)C)sc1C(=O)Nc1ccc(OC[C@H]2CCCCN2)c(-c2c(C)noc2C)c1 [Compound 231, (R)—N-(3-(3,5-dimethylisoxazol-4-yl)-4-(piperidin-2-ylmethoxy)phenyl)-2-isopropyl-4-methylthiazole-5-carboxamide] | 16.8
COc1ccc(CC(=O)Nc2ccc(OCCN3CCC3)c(-c3c(C)noc3C)c2)cc1 [Compound 126, N-(4-(2-(azetidin-1-yl)ethoxy)-3-(3,5-dimethylisoxazol-4-yl)phenyl)-2-(4-methoxyphenyl) acetamide] | 5.28
Cc1noc(C)c1-c1cc(NC(=O)C[C@@H]2CCOC2)ccc1OC[C@H]1CCCCN1 [Compound 201, N-(3-(3,5-dimethylisoxazol-4-yl)-4-(((R)-piperidin-2-yl)methoxy)phenyl)-2-((S)-tetrahydrofuran-3-yl)acetamide] | 11.9
Cc1noc(C)c1-c1cc(NC(=O)C2CC2)ccc1OC[C@H]1COCCN1 [Compound 173, (R)—N-(3-(3,5-dimethylisoxazol-4-yl)-4-(morpholin-3-ylmethoxy)phenyl)cyclopropanecarboxamide] | 96.9
Cc1noc(C)c1-c1cc(NC(=O)C2CC2)ccc1OCCN1CCC2(CCOC2=O)CC1 [Compound 142, N-(3-(3,5-dimethylisoxazol-4-yl)-4-(2-(1-oxo-2-oxa-8-azaspiro[4.5]decan-8-yl)ethoxy)phenyl)cyclopropanecarboxamide] | 67.4
Cc1noc(C)c1-c1cc(NC(=O)[C@H]2C[C@H]2F)ccc1OCCN1CCCC1 [Compound 107, (1R,2R)—N-(3-(3,5-dimethylisoxazol-4-yl)-4-(2-(pyrrolidin-1-yl)ethoxy)phenyl)-2-fluorocyclopropane-1-carboxamide] | 15.1
Cc1noc(C)c1-c1cc(NC(=O)C2CC2)ccc1OCCN1CCOCC1 [Compound 166, N-[3-(3,5-dimethylisoxazol-4-yl)-4-(2-morpholinoethoxy)phenyl]cyclopropanecarboxamide] | 6.54
Cc1noc(C)c1-c1cc(NC(=O)C(F)c2ccccc2)ccc1OC[C@H]1CCCCN1 (stereo partly drawn) [Compound 206, N-(3-(3,5-dimethylisoxazol-4-yl)-4-(((R)-piperidin-2-yl)methoxy)phenyl)-2-fluoro-2-phenylacetamide] | 3.4
Cc1ncsc1C(=O)Nc1ccc(OC[C@H]2CCCCN2)c(-c2c(C)noc2C)c1 [Compound 193, (R)—N-(3-(3,5-dimethylisoxazol-4-yl)-4-(piperidin-2-ylmethoxy)phenyl)-4-methylthiazole-5-carboxamide] | 2.69
Cc1cnsc1C(=O)Nc1ccc(OC[C@H]2CCCCN2)c(-c2c(C)noc2C)c1 [Compound 214, (R)—N-(3-(3,5-dimethylisoxazol-4-yl)-4-(piperidin-2-ylmethoxy)phenyl)-4-methylisothiazole-5-carboxamide] | 3.05
CCc1cc(C(=O)Nc2ccc(OC[C@H]3CCCCN3)c(-c3c(C)noc3C)c2)n(C)n1 [Compound 209, (R)—N-(3-(3,5-dimethylisoxazol-4-yl)-4-(piperidin-2-ylmethoxy)phenyl)-3-ethyl-1-methyl-1H-pyrazole-5-carboxamide] | 36.3
